According to patent US9670139B2, “Telomerase activating compounds and methods of use thereof” (BEN-GURION UNIVERSITY OF THE NEGEV RESEARCH AND DEVELOPMENT …, priority 2007, dated 2017):

Key:
telomerase [1] = target: T1, telomerase (Homo sapiens, UniProt O14746); test: Real time PCR quantification of telomerase activity in hMSC nuclear extracts; format: cell-based; set-up: endogenous in cells; details: 250 nM
Description: FIG. 5: Activation of telomerase expression in hMSC by compounds of the present invention. A.—hMSC were treated with 250 nM of Compounds 79, 77 and 68 for 6 hours. Immunofluorescence was performed with anti-hTERT antibody (red) and the nucleus was stained with DAPI (blue). B. hMSC treated with compound 79 for 6 and 24 h. Telomerase activity was measured by real time PCR using a quantitative telomerase detection kit (Allied Biotech Inc., USA).
The possibility that compounds of the present invention enhance hMSC survival and proliferation by activation of TERT was examined by culturing hMSC (p 3) in a tissue culture chamber slide at 17×10^3 cells/well for 60 h. Compounds of the present invention were added for 6 h with fresh medium. Immunofluorescence with anti-hTERT antibody (first antibody) and cy3 fluorescent secondary antibody was carried out. The nucleus was stained with DAPI. Compounds of the present invention activated telomerase expression in hMSC (FIG. 5). […] Degree of activation of telomerase expression was Compound 68>79>77. Quantification of telomerase activity in hMSC was performed by Real time PCR (Quantification telomerase detection kit) in nuclear extracts derived from hMSC treated with compound 79 (250 nM) for 6 or 24 h. Compound 79 enhanced telomerase activity in hMSC by 12- or 6-fold in a time-dependent manner (FIG. 5B).

mouse cerebellum = test: Prevention of glutamate-induced apoptosis in mouse cerebellum slices; format: in vivo; details: 6 mg/kg, 24 h; slices treated with glutamate 30 min
Description: The ability of compounds of the present invention to prevent glutamate-induced apoptosis in mouse cerebellum was examined. Mice were injected with 6 mg/kg of Compound 79 or with vehicle only. Mice were sacrificed 24 h after treatment and their brains were removed. Cerebellum slices were prepared and subjected to glutamate treatment at various concentrations for 30 min. Sections were stained with propidium iodide and the number of apoptotic cells was counted and calculated using specific software (Jimage). Prevention of apoptosis in mice treated with compounds of the present invention was calculated as a percentage relative to control mice (FIG. 13). This supports a role for compounds of the present invention in treating seizures, stroke, Alzheimer's disease, epilepsy, schizophrenia, and alcohol and opiate addition.

telomerase [2] = test: Telomerase expression in rat brain cortex after subcutaneous injection (immunofluorescence); format: in vivo
Text: The effect of compounds of the present invention injected subcutaneously into female rats and adult male mice on telomerase expression in various regions of the brain was examined.

C. elegans = test: Lifespan extension of nematodes (C. elegans); format: in vivo; details: 50 micromolar; for Lifespan extension (%): Table 2, versus untreated controls; for Lifespan %: table of scaffold drawing 36, mean lifespan versus control
Description: Nematodes (C. elegans) were administered tri-phenyl telomerase-activating compounds presented in the following tables, and telomerase activity and/or expression was measured in terms of nematode lifespan extension. Nematodes were grown with the activators at 50 micromolar concentration, and the mean, maximum and half-life for Compound 68 and Compound 77, two representative molecules, was measured versus that of the control (FIG. 8). Values represent mean lifespan.
Survival of the C. elegans, a nematode that normally survives for 12-14 days, represents an acceptable model for studying life extension. Nematodes were administered tri-phenyl telomerase-activating compounds and their effect on the nematode lifespan extension was determined. Nematodes were grown with the activators at a concentration of 50 micromolar, and mean, maximum and half-life were measured in comparison with untreated controls. Lifespan increased by 13-43% (Table 2), and the median lifespan increased approximately 2-fold (from 12 days to 22 days, as shown in FIG. 8).

telomerase [3] = test: Telomerase expression in mouse heart protein extracts; format: in vivo; details: after injection, one mouse
Description: The activation of telomerase by compounds of the present invention in heart protein extracts derived from one mouse was measured (FIG. 14). […] This supports a role for compounds of the present invention in treating infarct, ischemia, myocarditis, etc.

telomerase [4] = target: T1, telomerase; test: Telomerase activity in RPE cells (quantitative telomerase detection kit, real time PCR); format: cell-based; set-up: endogenous in cells; host or cells: human retinal pigmented epithelial (RPE) cells; details: FIG. 7B
Text: FIG. 7: A. The effect of compounds of the present invention on human retinal pigmented epithelial cells under oxidative stress. B. The effect of compounds on telomerase activity in RPE cells (measured by a quantitative telomerase detection kit-real time PCR).
Chronic exposure of human retinal pigmented epithelial (RPE) cells to oxidative stress predisposes them to the development of age-related macular degeneration (AMD). Human RPE cells were exposed to oxidative stress by treatment with H2O2 (1 mM) for 24 hours, and H2O2 (0.5 mM) for another 24 hours. The cells were then treated daily for two days with the indicated compounds in the absence of H2O2. Increased cell growth was observed as a consequence of treatment with the compounds (FIG. 7A). Telomerase activity was enhanced in RPE cells treated with compounds 68 and 79 by 30- and 50-fold, respectively (FIG. 7B).

Human keratinocytes = test: Proliferation and survival of senescent human keratinocytes; format: cell-based; details: fifth passage keratinocytes
Description: Human keratinocytes which had lost their ability to proliferate (in their fifth passage) were obtained from a local skin bank and treated with Compound 68 for 24 h. Cell viability, cell number and morphology was examined.

telomerase [5] = test: Telomerase expression in mouse brain regions after subcutaneous injection (immunofluorescence); format: in vivo; details: three-month-old male mice, 24 h
Description: Compound 79 was injected subcutaneously into three-month-old male mice. The mice were sacrificed 24 h later and the cortex, cerebellum, hippocampus, hypothalamus, brain stem and olfactory bulb isolated and subjected to immunofluorescence. […] This activation appeared to be specific for certain neuronal cells.

[6] = Graft-versus-host disease (GVHD) induced by C57BL/6 spleen cells; format: in vivo, mouse; details: F1 mice inoculated with 30×10^6 C57BL/6 spleen cells
Text: (BALB/c×C57BL/6)F1 mice were inoculated with 30×10^6C57BL/6 spleen cells for induction of GVHD.

[7] = system: murine B-cell leukemia lymphoma (BCL1) cells; test: BCL1 tumorigenicity in (BALB/c×C57BL/6)F1 mice; format: in vivo, mouse; details: mice inoculated with 10^5 BCL1 cells; Compound 77 10 mM
Description: (BALB/c×C57BL/6)F1 mice were inoculated with 10^5 murine B-cell leukemia lymphoma (BCL1) cells. Splenomegaly and lymphocytosis (leukemia) developed in all controls and in mice treated with telomerase-activating compounds (40 or 80 mg/kg).

T1 sequence (O14746 whole entry): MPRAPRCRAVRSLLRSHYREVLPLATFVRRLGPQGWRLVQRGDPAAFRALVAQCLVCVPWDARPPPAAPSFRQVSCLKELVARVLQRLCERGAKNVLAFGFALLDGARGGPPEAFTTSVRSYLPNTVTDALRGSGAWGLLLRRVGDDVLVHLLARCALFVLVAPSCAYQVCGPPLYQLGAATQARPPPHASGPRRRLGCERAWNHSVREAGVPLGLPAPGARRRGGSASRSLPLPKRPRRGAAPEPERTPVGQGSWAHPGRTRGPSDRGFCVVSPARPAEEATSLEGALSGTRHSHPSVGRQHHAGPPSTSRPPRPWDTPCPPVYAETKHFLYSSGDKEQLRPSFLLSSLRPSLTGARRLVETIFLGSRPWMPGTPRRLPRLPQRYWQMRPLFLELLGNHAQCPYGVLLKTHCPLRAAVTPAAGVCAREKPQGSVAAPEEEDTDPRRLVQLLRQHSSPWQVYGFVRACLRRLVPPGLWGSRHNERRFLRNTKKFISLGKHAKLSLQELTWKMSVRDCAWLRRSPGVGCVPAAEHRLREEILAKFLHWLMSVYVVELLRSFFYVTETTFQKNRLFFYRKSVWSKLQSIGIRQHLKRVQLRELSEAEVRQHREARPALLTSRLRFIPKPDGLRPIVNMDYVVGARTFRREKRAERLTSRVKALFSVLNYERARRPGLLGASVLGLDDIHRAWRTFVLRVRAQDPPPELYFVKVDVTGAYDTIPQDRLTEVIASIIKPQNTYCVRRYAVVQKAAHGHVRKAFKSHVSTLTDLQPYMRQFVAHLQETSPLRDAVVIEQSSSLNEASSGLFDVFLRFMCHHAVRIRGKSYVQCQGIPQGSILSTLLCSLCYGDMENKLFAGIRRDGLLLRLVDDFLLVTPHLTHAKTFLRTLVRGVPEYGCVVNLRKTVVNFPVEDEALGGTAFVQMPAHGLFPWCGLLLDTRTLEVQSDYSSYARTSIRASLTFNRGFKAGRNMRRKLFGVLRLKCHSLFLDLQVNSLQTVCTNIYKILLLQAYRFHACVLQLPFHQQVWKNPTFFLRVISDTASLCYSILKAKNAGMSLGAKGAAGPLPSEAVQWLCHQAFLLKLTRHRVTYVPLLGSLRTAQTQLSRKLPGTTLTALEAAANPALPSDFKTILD

Compound	enhancement of telomerase activity in hMSC (telomerase [1]; 6 h)	enhancement of telomerase activity in hMSC (telomerase [1]; 24 h)	glutamate-induced apoptosis in mouse cerebellum (mouse cerebellum)	expression of telomerase in the brain cortex (telomerase [2])	Lifespan extension (%) (C. elegans)	Lifespan % (C. elegans)	heart telomerase expression (telomerase [3])	enhancement of telomerase activity in RPE cells (telomerase [4])	cell survival effect on keratinocytes (comparison) (Human keratinocytes)	telomerase expression in motor-neuronal cells of the brain stem (telomerase [5])	telomerase expression in the various brain regions (telomerase [5])	signs of acute GVHD (weight loss) versus untreated controls [6]	Survival Median (range) [7]
CCOCc1cc(C(C)(c2cc(COCC)c(O)c(COCC)c2)c2cc(COCC)c(O)c(COCC)c2)cc(COCC)c1O [Compound 79]	12 fold	6 fold	Prevention of glutamate-induced apoptosis	significantly activated	16%	16%	significant increase	50 fold	better cell survival effect than Compound 68	increased telomerase expression	significantly and dramatically increased	–	–
CN(C)Cc1cc(C(C)(c2cc(CN(C)C)c(O)c(CN(C)C)c2)c2cc(CN(C)C)c(O)c(CN(C)C)c2)cc(CN(C)C)c1O [Compound 77]	–	–	–	significantly activated	43%	43%	–	–	–	–	–	more severe signs of acute GVHD	26 (22-41)
